The results in this text go back to US20080102111A1, “Anticancer Composition for Oral Use Comprising Liposome Containing Phytosterols and Prevention or Treatment for Cancer Using the Liposome” (priority 2005, published 2008).

The assay concerns B16BL6 melanoma cells. Briefly: Metastasis-inhibiting activity in B16BL6 melanoma cells by the liposome compositions (lung colony count). It counts as in vivo, C57BL6/J mice. The conditions noted are these: lung surface colonies on 21st day; 0.2 mL oral once per day up to 6th day; B16BL6 cells i.v. 3×10^4/animal on 7th day. As to the method: Twenty 5-week old C57BL6/J mice were divided into four groups. The control group received 0.2 mL phosphate-buffered physiological saline (PBS) once per day by forced oral administration up to and including the 6th day of keeping. In like manner, the liposome composition of Example 1 was orally administered instead of the PBS to the group designated as the liposomized β-sitosterol group; an aqueous suspension of ordinary, unliposomized β-sitosterol (contained the same amount of β-sitosterol as the liposomized β-sitosterol administered to the liposomized β-sitosterol group) was orally administered instead of the PBS to the group designated as the β-sitosterol group; and the liposome composition of Comparative Example 1 was orally administered instead of the PBS to the group designated as the liposomized cholesterol group. B16BL6 melanoma cells suspended in serum-free medium were administered intravenously (3×10^4/0.2 ml/animal) on the 7th day of keeping. The mice were dissected on the 21st day of keeping and the lungs were extirpated; the lung surfaces were inspected and the number of colonies was counted.

Consider `CC[C@H](CC[C@@H](C)[C@H]1CC[C@H]2[C@@H]3CC=C4C[C@@H](O)CC[C@]4(C)[C@H]3CC[C@]12C)C(C)C` [β-Sitosterol, β-sitosterol], for which the “Average number of colonies” value amounted to 43.
